# Where no end group is shown, it is not given here.
# Test system: sheep red blood cells (sRBCs)
# Test: Hemolytic activity
# Assay type: cell-based
# Conditions: sheep RBC 4% (v/v) in PBS pH 7.2, 1 h 37 °C, absorbance 450 nm; 3 experiments in triplicate; read-out: Hemolysis EC50
# Procedure: Fresh sheep red blood cells (sRBCs) were washed three times with PBS (35 mM phosphate buffer and 150 mM NaCl, pH 7.2) through centrifugation at 2000× g for 5 min and resuspended in PBS. Specifically, aliquots of each sample in PBS (50 μL) were added to 50 μL of sRBC suspension [4% (v/v) in the final] in a microtube and incubated for 1 h at 37 °C; then, the samples were centrifuged at 2000× g for 5 min. The supernatant was transferred to a 96-well plate to monitor hemoglobin release, which was done by measuring the absorbance of the supernatant at 450 nm using a Benchmark microplate reader. PBS and 0.1% Triton X-100 were used as the negative and positive controls, respectively. The experiments were repeated 3 times, each time in triplicate. In the equation to calculate the hemolysis rate, AP refers to peptide sample absorbance, AT refers to 0.1% Triton X-100 positive control absorbance, and A0 refers to PBS sample negative control absorbance. Hemolysis rate (%)=Ap−A0/AT−A0×100
row,Substance,EC50
1,AGLGKIGAFIKKAYAIYKAKAA-NH2 [M-lycotoxin-Lp5a],> 100 µM
2,AGLGKIGALIKKAYAIYKAKAA-NH2 [M-lycotoxin-Lp5b],> 100 µM
3,IWLTALKFIGKNLGKHFAKQQLSKL-NH2 [M-lycotoxin-Lp3a],> 100 µM
4,MVWLLPLKFLASHVAMEQLSKLGSKIATKL-NH2 [M-lycotoxin-Lp1a],> 100 µM
5,SKWKAFLAKMKEIASEAL-NH2 [M-lycotoxin-Lp6],> 100 µM
6,VIWLPALKFLASHIAMEQLSKL-NH2 [M-lycotoxin-Lp1b],> 100 µM

# Test system: crickets (Acheta domesticus)
# Test: Insect toxicity (paralysis after injection)
# Assay type: in vivo
# Conditions: injection into abdominal region, paralysis counted 30 min after injection, 10 insects per measurement, parentheses = 95% confidence intervals
# Procedure: Insect toxicity was tested on crickets (Acheta domesticus, 50 ± 5 mg body weight) by injecting 1–2 µL of each sample dissolved in distilled water into their abdominal region. Distilled water was injected as a control. For each measurement, 10 insects were used, and the number of paralyzed insects was counted 30 min after injection. The doses required to induce paralysis in half of the test animals (PD50) were determined using the statistical software PRISM (GraphPad Software, La Jolla, CA, USA).
row,Substance,Insect Toxicity PD50
1,AGLGKIGAFIKKAYAIYKAKAA-NH2 [M-lycotoxin-Lp5a],50 (18.3–138) µg/g Weight
2,AGLGKIGALIKKAYAIYKAKAA-NH2 [M-lycotoxin-Lp5b],44 (12.2–160) µg/g Weight
3,KIKWFKAMKSIAKYVAKKQLKKHLGGEN [M-lycotoxin-Lp4],10 (5.8–17.1) µg/g Weight

# Test system: not listed separately
# Test: Secondary structure estimation by CD spectroscopy (DichroWeb)
# Assay type: physicochemical
# Conditions: solvent I: 0.2 M phosphate buffer pH 7.0, 10 µM, 25 °C, DichroWeb CDSSTR, reference dataset 4
# Procedure: CD spectra were recorded on a J-820 spectropolarimeter (Jasco, Tokyo, Japan). The spectra were measured between 190–260 nm (in 0.2-nm steps) at 25 °C with a 1-mm-pathlength cell. Samples were dissolved in a 0.2 M phosphate buffer (pH 7.0) or 50% TFE in a 0.2 M phosphate buffer (pH 7.0) at a concentration of 10 µM. Five scans were averaged for each sample. The percentages of secondary structures were estimated from the spectra using the DichroWeb server. The helical wheel projection was performed using the online software HeliQuest (https://heliquest.ipmc.cnrs.fr, accessed on 14 July 2022).
Substance,"Percentage of Secondary Structure, Turns","Percentage of Secondary Structure, Unordered","Percentage of Secondary Structure, α-Helix","Percentage of Secondary Structure, β-Sheet"
AGLGKIGAFIKKAYAIYKAKAA-NH2 [M-lycotoxin-Lp5a],28%,33%,15%,23%
AGLGKIGALIKKAYAIYKAKAA-NH2 [M-lycotoxin-Lp5b],25%,34%,7%,33%
KIKWFKAMKSIAKYVAKKQLKKHLGGEN [M-lycotoxin-Lp4],26%,33%,8%,33%

# Same assay, conditions: solvent II: 50% TFE in 0.2 M phosphate buffer pH 7.0, 10 µM, 25 °C, DichroWeb CDSSTR, reference dataset 4
Substance,"Percentage of Secondary Structure, Turns","Percentage of Secondary Structure, Unordered","Percentage of Secondary Structure, α-Helix","Percentage of Secondary Structure, β-Sheet"
AGLGKIGAFIKKAYAIYKAKAA-NH2 [M-lycotoxin-Lp5a],10%,18%,55%,17%
AGLGKIGALIKKAYAIYKAKAA-NH2 [M-lycotoxin-Lp5b],11%,23%,51%,14%
KIKWFKAMKSIAKYVAKKQLKKHLGGEN [M-lycotoxin-Lp4],13%,23%,51%,11%

# Test system: Escherichia coli NBRC 3972
# Test: Antibacterial activity, liquid growth inhibition assay
# Assay type: cell-based
# Conditions: E. coli NBRC 3972, LB medium, overnight 37 °C, A595; MIC as interval [a]–[b]; at least three experiments in duplicate
# Procedure: (§1) Antibacterial activity was measured using the Gram-negative bacteria Escherichia coli NBRC 3972 and the Gram-positive bacteria Staphylococcus aureus NBRC 13276 and Bacillus subtilis NBRC 3009 (NITE Biological Resource Center, Chiba, Japan), using a liquid growth inhibition assay. Each bacteria strain was grown in a liquid LB medium (1% tryptone, 0.5% yeast extract, and 1% NaCl). Aliquots of each sample (10 µL) were incubated with 90 µL of a suspension of a mid-logarithmic phase culture of bacteria in a 96-well plate at a starting absorbance of A595 = 0.001 in the LB medium; the incubation occurred overnight at 37 °C with continuous shaking. Growth inhibition was monitored by measuring the absorbance at 595 nm using a Benchmark microplate reader (Bio-Rad, Hercules, CA, USA). Experiments were repeated at least three times, each time in duplicate. Minimal inhibitory concentrations (MICs) are expressed as the interval of concentrations [a]–[b], where [a] is the highest concentration at which bacteria still grow and [b] is the lowest concentration causing growth inhibition.
row,Substance,"Antibacterial Activity MIC, E. coli"
1,AGLGKIGAFIKKAYAIYKAKAA-NH2 [M-lycotoxin-Lp5a],1.25 to 2.5 µM
2,AGLGKIGALIKKAYAIYKAKAA-NH2 [M-lycotoxin-Lp5b],1.25 to 2.5 µM
3,IWLTALKFIGKNLGKHFAKQQLSKL-NH2 [M-lycotoxin-Lp3a],0.8 to 1.6 µM
4,MVWLLPLKFLASHVAMEQLSKLGSKIATKL-NH2 [M-lycotoxin-Lp1a],6.2 to 12.5 µM
5,SKWKAFLAKMKEIASEAL-NH2 [M-lycotoxin-Lp6],5 to 12.5 µM
6,VIWLPALKFLASHIAMEQLSKL-NH2 [M-lycotoxin-Lp1b],50 to 100 µM

# Test system: Bacillus subtilis NBRC 3009
# Test: as above
# Assay type: cell-based
# Conditions: B. subtilis NBRC 3009, LB medium, overnight 37 °C, A595; MIC as interval [a]–[b]; at least three experiments in duplicate
# Procedure: as §1
row,Substance,"Antibacterial Activity MIC, B. subtilis"
1,AGLGKIGAFIKKAYAIYKAKAA-NH2 [M-lycotoxin-Lp5a],1.25 to 2.5 µM
2,AGLGKIGALIKKAYAIYKAKAA-NH2 [M-lycotoxin-Lp5b],1.25 to 2.5 µM
3,IWLTALKFIGKNLGKHFAKQQLSKL-NH2 [M-lycotoxin-Lp3a],0.8 to 1.6 µM
4,MVWLLPLKFLASHVAMEQLSKLGSKIATKL-NH2 [M-lycotoxin-Lp1a],12.5 to 25 µM
5,SKWKAFLAKMKEIASEAL-NH2 [M-lycotoxin-Lp6],5 to 12.5 µM
6,VIWLPALKFLASHIAMEQLSKL-NH2 [M-lycotoxin-Lp1b],6.2 to 12.5 µM

# Test system: Staphylococcus aureus NBRC 13276
# Test: as above
# Assay type: cell-based
# Conditions: S. aureus NBRC 13276, LB medium, overnight 37 °C, A595; MIC as interval [a]–[b]; at least three experiments in duplicate
# Procedure: as §1
row,Substance,"Antibacterial Activity MIC, S. aureus"
1,AGLGKIGAFIKKAYAIYKAKAA-NH2 [M-lycotoxin-Lp5a],50 to 100 µM
2,AGLGKIGALIKKAYAIYKAKAA-NH2 [M-lycotoxin-Lp5b],50 to 100 µM
3,IWLTALKFIGKNLGKHFAKQQLSKL-NH2 [M-lycotoxin-Lp3a],0.4 to 0.8 µM
4,MVWLLPLKFLASHVAMEQLSKLGSKIATKL-NH2 [M-lycotoxin-Lp1a],12.5 to 25 µM
5,SKWKAFLAKMKEIASEAL-NH2 [M-lycotoxin-Lp6],>100 µM
6,VIWLPALKFLASHIAMEQLSKL-NH2 [M-lycotoxin-Lp1b],3.1 to 6.2 µM

# — article PMC9788040, “Molecular Diversity of Linear Peptides Revealed by Transcriptomic Analysis of the Venom Gland of the Spider Lycosa poonaensis” (Toxins, 2022)
